Patent US11198710B2, “Transgenic plant having herbicide resistance” (priority 2016, dated 2021)

Experiments:
[1] = test system: wild-type rapeseed plants (variety: Westar); assay: Rapeseed sensitivity test 2 (agar medium), wild type; type: in vivo, Brassica napus; conditions: 0.1 μM pyroxasulfone, 22° C., 2 weeks
Description: In order to investigate the extent of pyroxasulfone resistance of the transgenic rapeseed plants comprising the […] gene introduced therein compared to wild-type plants, the growth of rapeseed was examined in an agar medium containing pyroxasulfone. Wild-type rapeseed plants (variety: Westar) and transgenic rapeseed plants comprising the TaQ8GTC0 gene introduced therein were subjected to the growth inhibitory test in an agar medium, so as to examine the resistance thereof to pyroxasulfone.
The medium (1 liter) used in the test was composed of 1× Murashige-Skoog (MS) media (a bag), thiamin hydrochloride (3 μg/ml), nicotinic acid (5 μg/ml), pyridoxin hydrochloride (0.5 μg/ml), and 1% (w/v) sucrose. The composition was added to a 1-liter beaker, a pH was adjusted to 5.7, and the volume of the composition was adjusted to 1 liter, followed by the addition of 8 g (0.8%) of agar. Thereafter, the composition was autoclaved, the temperature was cooled to room temperature, and pyroxasulfone (acetone solution) at a given concentration was added. […]
The sensitivity of rapeseed was examined in agar media comprising pyroxasulfone (0.1 μM, 1 μM, 10 μM, and 100 μM). […] Values in the table in FIGS. 41 and 42 are expressed as the mean±standard deviation (n=4 to 5). Values in FIG. 43 are expressed as the means (n=4 to 5).

TaQ8GTC1-R protein = assay: Glutathione conjugation activity of the TaQ8GTC1-R protein to pyroxasulfone (HPLC); type: biochemical, wheat; conditions: 30° C., 1 hour
Experimental: The glutathione conjugation activity to pyroxasulfone was measured in a reaction mixture (200 μl in total) containing 50 μl of 100 mM potassium phosphate buffer (pH 6.8), 10 μl of 1 mM pyroxasulfone (acetone solution), 20 μl of 10 mM reduced glutathione (pH 7.0), and 120 μl of the TaQ8GTC1-R protein (PBS solution containing 20% glycerol), the reaction was conducted at 30° C. for 1 hour, the reaction product was filtered through a 0.2-μm filter, and 50 μl of the resulting solution was injected into HPLC. A reaction mixture (prepared with the addition of PBS containing 20% glycerol instead of the TaQ8GTC1-R protein) and another reaction mixture (prepared with the addition of PBS containing 20% glycerol and sterile water instead of the TaQ8GTC1-R protein and glutathione, respectively) were prepared as control reaction mixture. […]
Subsequently, the glutathione conjugation activity of the TaQ8GTC1-R protein to pyroxasulfone was examined. […] The amount of the protein added to the enzyme reaction mixture was determined to be 500 ng since about 50% of a total of 10 nmol of the added herbicides was converted into glutathione conjugates when the enzyme activity of the about 400 ng of TaQ8GTC0 (see Example 1) was inspected under the same conditions.

[2] = test system: wild-type rapeseed plants (variety: Westar); assay: Rapeseed sensitivity test 1 (post-sowing/pre-emergence soil treatment), wild type; type: in vivo, Brassica napus
Experimental: Wild-type rapeseed plants (variety: Westar) and transgenic rapeseed plants comprising the wheat GST gene introduced therein were subjected to Rapeseed sensitivity test 1 in plastic pots (length: 8 cm; width: 8 cm; height: 6 cm). The test was carried out in Fujino soil (sandy loam soil), and 4 seeds of wild-type rapeseed and 8 seeds of transgenic rapeseed were sown in each pot (sowing depth: 1 cm). Water dispersible granules containing 50% pyroxasulfone were applied at 5 different doses of 1, 4, 16, 63, and 250 g a.i./ha (n=3). Immediately after pyroxasulfone treatment, about 1 mm of rain was fallen with the use of artificial rainfall device, and water was supplied from the bottom of the pots. Thereafter, water was supplied from the bottom of the pot when the soil surface was dried in the pot, according to need.
The difference in the sensitivity of rapeseed to pyroxasulfone applied pre-emergence was examined (temperature: 22° C., fluorescent light), and whether or not the transgenic rapeseed plant comprising wheat GST had pyroxasulfone resistance was evaluated in terms of the plant height, the herbicidal symptoms, and the cotyledon growth. Specifically, heights of the plants were measured 2 weeks after seeds sowing of rapeseed and pyroxasulfone application, and the inhibition was assessed by comparison to control plants grown in the absence of pyroxauslfone (n=4 to 12). In FIGS. 37 to 39, “TaGST” stands for a transgenic rapeseed plant comprising the TaQ8GTC0 gene. Values in the table in FIG. 38 are expressed as the mean±standard deviation (n=4 to 12).

With `Cn1nc(C(F)(F)F)c(CS(=O)(=O)C2=NOC(C)(C)C2)c1OC(F)F` [Pyroxasulfone, 3-[5-(difluoromethoxy)-1-methyl-3-(trifluoromethyl)pyrazol-4-ylmethylsulfonyl]-4,5-dihydro-5,5-dimethyl-1,2-oxazole] the “inhibition ratio on foliage leaf development” value [1] was 8.4±1.4%, the “inhibition ratio on plant height” value [1] was 8.9±2.8% and the “glutathione conjugation activity to pyroxasulfone” value (TaQ8GTC1-R protein; 500 ng TaQ8GTC1-R protein) was “did not possess glutathione conjugation activity”. For the same compound, the “pyroxasulfone added to the reaction mixture converted into M-15” value (TaQ8GTC1-R protein; equivalent in enzyme reaction mixture (500 ng protein) and reaction mixture without enzyme) was “about 3%”, the inhibition at 16 g/ha ([2]; Brassica napus, 336 h, 16 g a.i./ha, 2 weeks after sowing and application, 22° C., read-out: shoot growth inhibition (plant height)) was 61.9% and the “dose at which cotyledon growth was substantially completely inhibited” value ([2]; pre-emergence soil treatment) was ≥ 16 g a.i./ha. For the same compound, the “dose at which cotyledons became dark green (herbicidal symptoms)” value ([2]; pre-emergence soil treatment) was ≥ 16 g a.i./ha.
